Laboratory results as given in paper PMC4730192, “Ligand selectivity in tachykinin and natalisin neuropeptidergic systems of the honey bee parasitic mite Varroa destructor” (Scientific Reports, 2016).
No end group written: not given here.

Assays:
[1] = target: T1, V. destructor TRP receptor (VdTRP-R) (Varroa destructor, UniProt A0A141CIT9); test: Aequorin calcium-mobilization reporter assay, VdTRP-R transiently expressed in CHO-K1 cells with Ga16; assay type: cell-based; conditions: for EC50: CHO-K1 cells, Ga16 + aequorin luminescence, 10-fold serial dilutions, logistic fitting of dose-response curves; for Agonistic activity, VdTRP-R 0.1μM: ligand 0.1 μM; for Agonistic activity, VdTRP-R 0.1μM / Agonistic activity, VdTRP-R 1μM: relative luminescence normalized by highest activity of endogenous ligand VdTRP3, 3 biological replications; for Agonistic activity, VdTRP-R 1μM: ligand 1 μM; for Receptor specificity among VdNTL-R, VdTRP-R and AmTRP-R (in words): expanded ligand test at two concentrations on the three receptors
T1 sequence (A0A141CIT9 1-437): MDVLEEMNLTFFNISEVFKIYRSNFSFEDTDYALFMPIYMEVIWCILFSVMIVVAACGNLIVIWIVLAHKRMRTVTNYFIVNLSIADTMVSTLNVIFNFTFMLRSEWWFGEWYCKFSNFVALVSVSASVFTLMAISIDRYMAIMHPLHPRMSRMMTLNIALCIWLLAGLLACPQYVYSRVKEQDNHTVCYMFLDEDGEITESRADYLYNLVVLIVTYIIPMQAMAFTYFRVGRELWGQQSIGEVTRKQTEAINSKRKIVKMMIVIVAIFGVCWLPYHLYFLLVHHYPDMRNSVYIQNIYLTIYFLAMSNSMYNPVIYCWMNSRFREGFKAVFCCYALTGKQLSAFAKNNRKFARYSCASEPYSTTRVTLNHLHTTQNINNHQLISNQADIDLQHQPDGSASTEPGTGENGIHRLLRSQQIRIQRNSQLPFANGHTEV
Excerpt: (§1) In this system, ligand-mediated G-protein-coupled receptor (GPCR) activation initiates calcium mobilization that is indicated by the increased luminescence of aequorin.
(§2) The PCR amplicons of the full open reading frames (ORFs) of the three receptors were initially cloned into the pGEMT easy vector (Promega) and transferred to the expression vector pcDNA3.1(+) (Invitrogen) using the common restriction enzymes in the multi-cloning site (EcoRI for AmTRPR, NotI for both VdNTLR and VdTRPR). The sequences of the inserts were confirmed by Sanger sequencing prior to heterologous expression. High-quality plasmid DNA prepared using the plasmid MIDIprep kit (Qiagen) was used for transient transfection. The methods for transient expression of aequorin and G-alpha16 in Chinese hamster ovary (CHO-K1) cells and the procedures for the assays were previously described. Thirty hours after the transfection, the cells were collected and preincubated with the coelenterazine (Invitrogen) for the functional assay as previously described. Serial dilutions (10-fold, ranging from 0.001 to 1000 nM) of the 10 endogenous ligands were used for treatment of the cells. These ten natural ligands included two […] and three […] predicted from the respective putative precursors and also included five AmTRP peptides. The elevated luminescence caused by intracellular calcium mobilization was measured for a continuous 20 seconds at every 100-ms interval. Dose response curves and EC50s of each ligand for each receptor were obtained by logistic fitting in Origin 8.6 (OriginLab).
(§3) The test ligands were mainly the NTL peptides of T. castaneum, D. melanogaster, B. mori, and Anopheles gambiae and two TRPs, TcTRP4 and DmTRP6. Two doses of each ligand were tested for each receptor: 1 and 0.1 μM for VdNTL-R and VdTRP-R and 1 and 0.01 μM for AmTRP-R.

[2] = target: T2, A. mellifera TRP receptor (AmTRP-R) (Apis mellifera, UniProt A0ACM8RFV8); test: Aequorin calcium-mobilization reporter assay, AmTRP-R transiently expressed in CHO-K1 cells with Ga16; assay type: cell-based; conditions: for EC50: CHO-K1 cells, Ga16 + aequorin luminescence, 10-fold serial dilutions, logistic fitting of dose-response curves; for Agonistic activity, AmTRP-R 0.01μM: ligand 0.01 μM; for Agonistic activity, AmTRP-R 0.01μM / Agonistic activity, AmTRP-R 1μM: relative luminescence normalized by highest activity of endogenous ligand AmTRP1, 3 biological replications; for Agonistic activity, AmTRP-R 1μM: ligand 1 μM; for Agonistic activity on AmTRP-R (in words): dose-response or expanded ligand test, 1 and 0.01 μM
T2 sequence (A0ACM8RFV8 1-421): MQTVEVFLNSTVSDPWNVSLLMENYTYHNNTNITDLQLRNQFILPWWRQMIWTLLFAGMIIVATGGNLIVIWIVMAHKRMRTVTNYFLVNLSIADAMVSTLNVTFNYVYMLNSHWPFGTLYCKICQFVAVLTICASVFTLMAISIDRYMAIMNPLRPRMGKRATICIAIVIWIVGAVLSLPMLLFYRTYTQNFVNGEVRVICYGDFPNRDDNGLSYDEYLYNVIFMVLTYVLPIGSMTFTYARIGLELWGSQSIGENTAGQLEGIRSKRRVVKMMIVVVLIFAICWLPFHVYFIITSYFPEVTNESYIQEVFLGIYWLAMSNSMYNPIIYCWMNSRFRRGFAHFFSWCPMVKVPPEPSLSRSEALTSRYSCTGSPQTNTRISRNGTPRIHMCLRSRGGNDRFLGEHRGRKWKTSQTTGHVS
Excerpt: as §1, §2, §3

[3] = target: T3, V. destructor NTL receptor (VdNTL-R) (Varroa destructor, UniProt A0A141CIT8); test: Aequorin calcium-mobilization reporter assay, VdNTL-R transiently expressed in CHO-K1 cells with Ga16; assay type: cell-based; conditions: for Agonistic activity, VdNTL-R 1μM: ligand 1 μM; for Agonistic activity, VdNTL-R 1μM / Agonistic activity, VdNTL-R 0.1μM: relative luminescence normalized by highest activity of endogenous ligand VdNTL1, 3 biological replications; for Agonistic activity, VdNTL-R 0.1μM: ligand 0.1 μM; for EC50: CHO-K1 cells, Ga16 + aequorin luminescence, 10-fold serial dilutions, logistic fitting of dose-response curves
T3 sequence (A0A141CIT8 1-461): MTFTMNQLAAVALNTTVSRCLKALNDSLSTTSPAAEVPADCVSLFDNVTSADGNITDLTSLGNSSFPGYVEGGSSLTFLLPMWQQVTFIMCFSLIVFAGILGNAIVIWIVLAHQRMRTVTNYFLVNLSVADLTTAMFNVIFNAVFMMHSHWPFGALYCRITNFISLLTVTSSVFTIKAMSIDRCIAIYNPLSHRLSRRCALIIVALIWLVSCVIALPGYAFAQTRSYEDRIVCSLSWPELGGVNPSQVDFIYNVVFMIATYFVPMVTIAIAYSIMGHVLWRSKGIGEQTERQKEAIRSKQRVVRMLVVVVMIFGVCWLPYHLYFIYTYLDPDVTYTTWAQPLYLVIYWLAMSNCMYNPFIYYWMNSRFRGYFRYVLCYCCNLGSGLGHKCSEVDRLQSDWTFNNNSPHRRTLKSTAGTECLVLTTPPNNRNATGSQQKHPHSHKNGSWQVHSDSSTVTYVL
Excerpt: as §1, §2, §3

[4] = tested on: cockroach TRP myotropic bioassay; conditions: cited from earlier work
[5] = tested on: pea aphid Acyrthosiphon pisum; conditions: by feeding; cited from earlier work
[6] = expanded ligand test, 1 and 0.1 μM

## AAPFHAMR-NH2 [VdTRP2]
[1]
  EC50: 0.071 µM
[2]
  EC50: 0.095 µM

## AFHAMR-NH2 [VdTRP1]
[1]
  EC50: 0.055 µM
[2]
  EC50: 0.095 µM

## ALMGFQGVR-NH2 [AmTRP1]
[3]
  Agonistic activity, VdNTL-R 1μM: 37.1 RLU
[1]
  Agonistic activity, VdTRP-R 0.1μM: 2.5 RLU
  Agonistic activity, VdTRP-R 1μM: 34.9 RLU
[2]
  EC50: 0.0003 µM
  Agonistic activity, AmTRP-R 0.01μM: 69 RLU
  Agonistic activity, AmTRP-R 1μM: 100 RLU

## APMGFQGMR-NH2 [AmTRP2,3]
[1]
  EC50: 0.25 µM

## ASGQEEFGPFWANRa [TcNTL1, NTL peptide of T. castaneum]
[3]
  Agonistic activity, VdNTL-R 0.1μM: 1 RLU
  Agonistic activity, VdNTL-R 1μM: 1.5 RLU
[1]
  Receptor specificity among VdNTL-R, VdTRP-R and AmTRP-R (in words): specifically activated only VdTRP-R
  Agonistic activity, VdTRP-R 0.1μM: 2.2 RLU
  Agonistic activity, VdTRP-R 1μM: 60.7 RLU
[2]
  Agonistic activity, AmTRP-R 0.01μM: 4.6 RLU
  Agonistic activity, AmTRP-R 1μM: -0.2 RLU

## DLRQENDPFWGNR-NH2 [BmNTL3, NTL peptide of B. mori]
[3]
  Agonistic activity, VdNTL-R 0.1μM: 0.4 RLU
  Agonistic activity, VdNTL-R 1μM: 0.1 RLU
[1]
  Receptor specificity among VdNTL-R, VdTRP-R and AmTRP-R (in words): specifically activated only VdTRP-R
  Agonistic activity, VdTRP-R 0.1μM: 30.7 RLU
  Agonistic activity, VdTRP-R 1μM: 83.4 RLU
[2]
  Agonistic activity, AmTRP-R 0.01μM: 4.7 RLU
  Agonistic activity, AmTRP-R 1μM: -0.8 RLU

## GGVPGFVGAR-NH2 [VdNTL2]
[3]
  EC50: 0.037 µM
[2]
  EC50: 0.0007 µM
  Agonistic activity on AmTRP-R (in words): equally potent as the AmTRPs

## GSFFGMR-NH2 [VdTRP3, GSFFGMRa]
[3]
  Agonistic activity, VdNTL-R 1μM: 24.8 RLU
[1]
  EC50: 0.0043 µM
  Agonistic activity, VdTRP-R 0.1μM: 107.6 RLU
  Agonistic activity, VdTRP-R 1μM: 100 RLU
[2]
  EC50: 0.013 µM
  Agonistic activity, AmTRP-R 0.01μM: 58 RLU
  Agonistic activity, AmTRP-R 1μM: 96.3 RLU

## HRNLFQVDDPFFATRa [DmNTL4, NTL peptide of D. melanogaster]
[3]
  Agonistic activity, VdNTL-R 0.1μM: 0.8 RLU
  Agonistic activity, VdNTL-R 1μM: 30.4 RLU
[1]
  Agonistic activity, VdTRP-R 0.1μM: 10.3 RLU
  Agonistic activity, VdTRP-R 1μM: 70.9 RLU
[2]
  Agonistic activity, AmTRP-R 0.01μM: 9.5 RLU
  Agonistic activity, AmTRP-R 1μM: 79.7 RLU

## LQLRDLYNADDPFVPNRa [DmNTL5, NTL peptide of D. melanogaster]
[3]
  Agonistic activity, VdNTL-R 0.1μM: 0.2 RLU
  Agonistic activity, VdNTL-R 1μM: 0.1 RLU
[1]
  Agonistic activity, VdTRP-R 0.1μM: 0.7 RLU
  Agonistic activity, VdTRP-R 1μM: 3.1 RLU
[2]
  Agonistic activity, AmTRP-R 0.01μM: 6.5 RLU
  Agonistic activity, AmTRP-R 1μM: -1.2 RLU

## NPRWEFRGKFVGVR-NH2 [AmTRP7]
[1]
  EC50: 0.093 µM
[1]; fold lower sensitivity versus VdTRP3
  Lower sensitivity of VdTRP-R relative to VdTRP3: > 10 ×
[2]
  EC50: 0.0008 µM

## SIGGPAPGFVGAR-NH2 [VdNTL1]
[3]
  EC50: 0.026 µM
  Agonistic activity, VdNTL-R 0.1μM: 96.2 RLU
  Agonistic activity, VdNTL-R 1μM: 100 RLU
[1]
  Agonistic activity, VdTRP-R 0.1μM: 1.3 RLU
  Agonistic activity, VdTRP-R 1μM: 18.6 RLU
[2]
  EC50: 0.0045 µM
  Agonistic activity, AmTRP-R 0.01μM: 60.2 RLU
  Agonistic activity, AmTRP-R 1μM: 98.4 RLU
[2]; VdNTL1 compared with VdNTL2
  Difference in activity on AmTRP-R between VdNTL1 and VdNTL2: approximately 6 ×

## TEENPFWANR-NH2 [BmNTL5, NTL peptide of B. mori]
[3]
  Agonistic activity, VdNTL-R 0.1μM: 0.3 RLU
  Agonistic activity, VdNTL-R 1μM: 0.4 RLU
[1]
  Receptor specificity among VdNTL-R, VdTRP-R and AmTRP-R (in words): specifically activated only VdTRP-R
  Agonistic activity, VdTRP-R 0.1μM: 7.3 RLU
  Agonistic activity, VdTRP-R 1μM: 61.2 RLU
[2]
  Agonistic activity, AmTRP-R 0.01μM: 6 RLU
  Agonistic activity, AmTRP-R 1μM: -0.2 RLU

## pQA[Aib]SGFL[Aib]VRamide [compound 1888]
[3]; [6]
  Agonistic activity on VdNTL-R (in words): failing to show agonistic activity
[3]
  Agonistic activity, VdNTL-R 0.1μM: -0.4 RLU
  Agonistic activity, VdNTL-R 1μM: 1.9 RLU
[1]; [6]
  Agonistic activity on VdTRP-R (in words): failing to show agonistic activity
[1]
  Agonistic activity, VdTRP-R 0.1μM: 0.3 RLU
  Agonistic activity, VdTRP-R 1μM: 1 RLU
[2]
  Agonistic activity on AmTRP-R (in words): some activity
  Agonistic activity, AmTRP-R 0.01μM: -0.4 RLU
  Agonistic activity, AmTRP-R 1μM: 62.9 RLU
[4]
  Activity in a cockroach TRP myotropic bioassay: highly potent activity
[5]
  Oral aphicidal activity: potent oral aphicidal activity
